According to patent US4296107A, “Mildiomycin analogs and a method of production” (Takeda Chemical Industries, Ltd., priority 1979, dated 1981):
Values after ≈ are worked out from the molar mass of the structure shown. Like-named read-outs stand apart in the source and are kept apart here.

What was measured:
[1] = test system: Rhodotorula rubra IFO 0870; assay: Antimicrobial spectrum, agar dilution method (in vitro); format: cell-based; conditions: IFO0870, medium A, 28 °C, 40 hr, read-out: Minimal inhibitory concentration
Totranychus urticae = assay: Miticidal effect on kidney bean seedlings; format: in vivo; conditions: 500 ppm, 28 °C, 20 ml per pot
Method: The test on the miticidal effect was carried out. The seedlings (5 days after germination) of kidney bean grown in pots (9 cm in diameter) were inoculated on their main leaves with about 50 female adults of Totranychus urticae, and the test chemical solution was sprayed in 20 ml quantities per pot by means of a spray gun. After spraying, the pots were placed in a phytotron (28° C.), and a number of surving mites on leaves was investigated at the 5th and 7th day to determine a decrease rate against a number of mites immediately before spraying [=(number of mites tested-number of surving mites)/(number of mites tested)×100].

some bacteria = assay: Antimicrobial spectrum, agar dilution method (in vitro), summary in words; format: cell-based
[2] = test system: Mycobacterium smegmatis ATCC 607; assay: Antimicrobial spectrum, agar dilution method (in vitro); format: cell-based; conditions: Mycolicibacterium smegmatis, ATCC607; medium C, 37 °C, 40 hr; read-out: Minimal inhibitory concentration
From the text: (§1) C 3.0% of glycerin, 0.5% of Ehrlich's meat extract, 0.5% of NaCl, 1.5% of […]

[3] = test system: Mycobacterium phlei IFO 3158; assay: as above; format: cell-based; conditions: Mycolicibacterium phlei, IFO3158; medium C, 37 °C, 40 hr; read-out: Minimal inhibitory concentration
From the text: as §1

[4] = test system: Penicillium chrysogenum IFO 4626; assay: as above; format: cell-based; conditions: IFO4626, medium A, 28 °C, 40 hr, read-out: Minimal inhibitory concentration
[5] = test system: Guignardia laricina IFO 7886; assay: as above; format: cell-based; conditions: Neofusicoccum laricinum, IFO7886; medium A, 28 °C, 88 hr; read-out: Minimal inhibitory concentration
[6] = test system: Bacillus subtilis IFO 3513; assay: as above; format: cell-based; conditions: IFO3513, medium B, 37 °C, 20 hr, read-out: Minimal inhibitory concentration
From the text: (§2) B 0.5% of Ehrlich's meat extract, 0.5% of polypeptone, 0.5% of NaCl, 1.5%

[7] = test system: Proteus vulgaris IFO 3045; assay: as above; format: cell-based; conditions: IFO3045, medium B, 37 °C, 20 hr, read-out: Minimal inhibitory concentration
From the text: as §2

[8] = test system: Escherichia coli IFO 12734; assay: as above; format: cell-based; conditions: IFO12734, medium B, 37 °C, 20 hr, read-out: Minimal inhibitory concentration
From the text: as §2

[9] = test system: Saccharomyces cerevisiae IFO 0209; assay: as above; format: cell-based; conditions: IFO0209, medium A, 28 °C, 40 hr, read-out: Minimal inhibitory concentration
[10] = test system: Cochlioborus miyabeanus IFO 5277; assay: as above; conditions: 40 h, read-out: Minimal inhibitory concentration
Solubilities = format: physicochemical; conditions: free base
powdery mildew of barley = assay: Controlling effect against powdery mildew of barley (method of Iwasa et al.); format: in vivo; conditions: in words
From the text: The controlling effect against powdery mildew of barley was investigated according to the method of Iwasa, et. al. (The Journal of Antibiotics, vol. 31, No. 6, pp. 512, 1978).

in vivo = conditions: mouse
[11] = test system: fungi of late blight of tomato; format: in vivo; conditions: tomato plants in pots, 4 days, nontreated group taken as 100%
[12] = test system: Sclerotinia sclerotiorum IFO 9395; assay: Antimicrobial spectrum, agar dilution method (in vitro); format: cell-based; conditions: IFO9395, medium A, 28 °C, 40 hr, read-out: Minimal inhibitory concentration

| Structure (SMILES) | MIC [1] | Decrease rate against number of mites immediately before spraying, 5th day (Totranychus urticae) | Decrease rate against number of mites immediately before spraying, 7th day (Totranychus urticae) | MIC [2] | MIC [3] | MIC [4] | MIC [5] | MIC [6] | MIC [7] | MIC [8] | MIC [9] | MIC [10] | solubility in organic solvents (Solubilities) | solubility in water (Solubilities) | controlling effect against powdery mildew of barley (powdery mildew of barley) | LD50 (in vivo; ip) | LD50 (in vivo; iv) | LD50 (in vivo; sc) | Percent area of lesions ([11]; 150 ppm) | Percent area of lesions ([11]; 200 ppm) | also measured |
| --- | --- | --- | --- | --- | --- | --- | --- | --- | --- | --- | --- | --- | --- | --- | --- | --- | --- | --- | --- | --- | --- |
| N=C(N)NCC(O)CC(O)(C(=O)O)C1OC(n2cc(Br)c(N)nc2=O)C=CC1NC(=O)C(N)CO (stereo not shown) [Example 5] | < 10 µg/mL | 100 | 100 | 25 µg/mL (≈ 44.4 µM) | 25 µg/mL (≈ 44.4 µM) | 250 µg/mL (≈ 444 µM) | 250 µg/mL (≈ 444 µM) | 250 µg/mL (≈ 444 µM) | 250 µg/mL (≈ 444 µM) | 100 µg/mL (≈ 178 µM) | 100 µg/mL (≈ 178 µM) | 100 µg/mL (≈ 178 µM) | less soluble | Easily soluble | greatly effective | > 200 mg/kg | > 100 mg/kg | > 200 mg/kg | 100% | 11% | antimicrobial activity against some bacteria (some bacteria): remarkably strong antimicrobial activity; Percent area of lesions ([11]; 250 ppm): 0%; Percent area of lesions ([11]; 300 ppm): 0%; Percent area of lesions ([11]; 500 ppm): 0%; MIC [12]: 500 µg/mL (≈ 888 µM) |
| N=C(N)NCC(O)CC(O)(C(=O)O)C1OC(n2ccc(N)nc2=O)C=CC1NC(=O)C(N)CO (stereo not shown) [Example 2] | < 10 µg/mL | 100 | 100 | 100 µg/mL (≈ 206 µM) | 50 µg/mL (≈ 103 µM) | 250 µg/mL (≈ 516 µM) | 250 µg/mL (≈ 516 µM) | 250 µg/mL (≈ 516 µM) | > 500 µg/mL | 250 µg/mL (≈ 516 µM) | 100 µg/mL (≈ 206 µM) | 100 µg/mL (≈ 206 µM) | less soluble | Easily soluble | greatly effective | > 200 mg/kg | > 100 mg/kg | > 200 mg/kg | 55% | 0% | Percent area of lesions ([11]; 250 ppm): 0%; Percent area of lesions ([11]; 300 ppm): 0%; Percent area of lesions ([11]; 500 ppm): 0%; MIC [12]: 250 µg/mL (≈ 516 µM) |
| Cc1cn(C2C=CC(NC(=O)C(N)CO)C(C(O)(CC(O)CNC(=N)N)C(=O)O)O2)c(=O)nc1N (stereo not shown) [Example 6] | < 10 µg/mL | 100 | 100 | 100 µg/mL (≈ 201 µM) | 50 µg/mL (≈ 100 µM) | 250 µg/mL (≈ 502 µM) | 250 µg/mL (≈ 502 µM) | 250 µg/mL (≈ 502 µM) | > 500 µg/mL | 250 µg/mL (≈ 502 µM) | 100 µg/mL (≈ 201 µM) | 100 µg/mL (≈ 201 µM) | less soluble | Easily soluble | greatly effective | > 200 mg/kg | > 100 mg/kg | > 200 mg/kg | 100% | 17% | Percent area of lesions ([11]; 250 ppm): 0%; Percent area of lesions ([11]; 300 ppm): 0%; Percent area of lesions ([11]; 500 ppm): 0%; MIC [12]: 250 µg/mL (≈ 502 µM) |
| N=C(N)NCC(O)CC(O)(C(=O)O)C1OC(n2cc(F)c(N)nc2=O)C=CC1NC(=O)C(N)CO (stereo not shown) [Example 7] | < 10 µg/mL | 100 | 100 | 100 µg/mL (≈ 199 µM) | 25 µg/mL (≈ 49.8 µM) | 250 µg/mL (≈ 498 µM) | 250 µg/mL (≈ 498 µM) | 250 µg/mL (≈ 498 µM) | > 500 µg/mL | 250 µg/mL (≈ 498 µM) | 100 µg/mL (≈ 199 µM) | 100 µg/mL (≈ 199 µM) | less soluble | Easily soluble | greatly effective | > 200 mg/kg | > 100 mg/kg | > 200 mg/kg | 100% | 16% | Percent area of lesions ([11]; 250 ppm): 0%; Percent area of lesions ([11]; 300 ppm): 0%; Percent area of lesions ([11]; 500 ppm): 0%; MIC [12]: 250 µg/mL (≈ 498 µM) |
